Legend:
[1] = system: Male WistarF/Han (WF) rats; assay: 1 h and 12 h food-intake after i.c.v. P32/98 and NPY (Example 3); assay type: in vivo, rat
Experimental: (§1) Animals. Male WistarF/Han (WF) rats (Central Animal Laboratory, Hannover Medical School, Hannover, Germany, weighing 330-370 g, were housed in a sound-proof, temperature controlled (24.0±0.5° C.) room under specific pathogen free conditions with a 12/12 h dark/light cycle (lights on at 07.00 with illumination level of 80 Lux). Food (Altromin lab chow pellets) and tap water were available ad libitum. Under ketamine/xylasine (100/5 mg/kg, i.p.) anesthesia, the rats were fixed in a Kopf stereotaxic frame and implanted with cannulae (Plastic One, Inc., Roanoke, Va., USA) above the lateral ventricle. All research and animal care procedures were approved by the Lower Saxony district government (Hannover, Germany) and followed principles described in the European Community's Council Directive of 24 Nov. 1986 (86/609/EEC).
Surgery and i.c.v. application. For surgery, rats were anesthetized and prepared with i.c.v. cannulae (coordinates: A: −0.7 mm caudal, L: 1.4 mm lateral to bregma; and V3.2 mm ventral to the skull surface; tooth bar +3.0 above ear bars) using standard stereotaxic procedures as described in detail elsewhere (von Hörsten et al., 1998a, b, c). After a 7-day recovery period, successful ventricle cannulation was confirmed by an angiotensin drinking response (von Hörsten et al., 1998a). Rats showing a positive drinking response (n=59) were then habituated to experimental handling by daily sham injections for seven days.
Animals were randomly divided into two sets of four experimental groups (n=5-6/group), which completed different consecutive SI test of anxiety. […] The time spent in active social interaction (SI-time), 1 h and 12 h food-intake were measured. […]
Statistical analysis. Data from repeated observations (food intake) were analyzed by two-way analyses of variance for repeated measures (ANOVA) (factors: “substrain” and “food intake” as repeated measure). Data obtained from simple measures such as DPIV activity or SI time were analyzed by one-way (factor: “substrain”) ANOVA. […]

[2] = system: Male WistarF/Han (WF) rats; assay: 1 h food-intake with Y1R antagonist BIBP3226, P32/98 and NPY (Example 4); assay type: in vivo, rat; settings: i.c.v. 50 nmol
Experimental: as §1, with “330±31 g±SD,” for “330-370 g,”
Surgery and i.c.v. application. […]
Animals were randomly divided into eight experimental groups (n=6-8/group), which completed one SI test of anxiety: (1) aCSF+aCSF+aCSF; (2) BIBP+aCSF+aCSF; (3) aCSF+P32/98+aCSF; (4) BIBP+P32/98+aCSF; (5) aCSF+aCSF+NPY; (6) BIBP+aCSF+NPY; (7) aCSF+[…]+NPY; (8) BIBP+P32/98+NPY. […] The time spent in active social interaction (SI-time), 1 h, and 12 h food-intake were measured. […]
Statistical analysis. Data obtained from the measures SI time and 1 h food intake were analyzed by one-way (factor: “treatment”) ANOVA. […]

Compound: CC[C@H](C)[C@H](N)C(=O)N1CCSC1 [P32/98]
- dose at which the 1 h feeding effect reached significance ([1]; i.c.v.): 0.05 nmol
- amount of food eaten within 1 h ([1]; i.c.v. P32/98 5 pmol-500 nmol, NPY 50 pmol-1.6 nmol, dark cycle): mild feeding effect
- 1 h food-intake, P32/98 alone [2]: non-significant slight increase of feeding

— patent US8168199B2, “Dipeptidyl peptidase IV inhibitors for the treatment of schizophrenia and depression” (priority 2000, dated 2012)
